Results: US5874461A, “Use of Nebivolol as an anti-atherogenic” (priority 1995, dated 1999)
Read-outs that look alike come from different tables or passages of the source.

Columns and labels:
[1] = system: human LDL; assay: In vitro oxidation of human LDL (Cu-induced conjugated diene formation at 234 nm); format: biochemical
Experimental: In vitro oxidation of human LDL Human venous blood was collected on EDTA (2.68 mM final concentration). Plasma was isolated by centrifugation. NaBr (37.3 mg/ml) was added and solubulized (final density 1.036 g/ml). Centrifuge tubes were first filled to a level corresponding to 2/3 of their maximal volume, further filled with a NaBr solution of 1.036 g/ml and then centrifuged for 18 hours at 45000 rpm in a 50 Ti rotor (Beckmann). After centrifugation, floating lipoproteins were discarded. The remaining solution was adjusted to a density of 1.055 g/ml. Filling of the centrifuge tubes and centrifugation were repeated as described above. After centrifugation, floating LDL was dialysed against a buffer containing 127 mM NaCl, 8 mM Na2 HPO4.2H2 O, 2.7 mM KCl and 1.47 mM KH2 PO4 at pH 7.4. After dialysis, LDL was filtered though a Millipore filter (0.45 μM) and protein content was determined. A dilution of 25 μg/ml was prepared with a millipored dialysis buffer. Oxidation was determined in a Pharmacia Ultraspec III spectrophotometer. Conjugated diene formation was registered at 234 nm. Two μl of a drug or solvent (DMSO) were added to Eppendorf tubes followed by 1 ml of LDL (25 μg/ml) and these substances were gently mixed and centrifuged for 1 min at 13000 g. The solution was pipetted in a Quartz cuvet that was thermostatised in the spectrophotometer at 37° C. After equilibration, the oxidation reaction was started by the addition of CuSO4 (final concentration 10 μM). Absorbance was measured every 3 minutes during the time course of the experiment. The absorbance at 234 nm was divided into three phases: a lag phase, a propagation phase and a decomposition phase (FIG. 1). The lag phase was defined as the intercept with the baseline of the tangent of the slope of the absorbance curve of the propagation phase. The rate of oxidation was defined as the tangent of the slope. Tmax was defined as the time required to attain the maximum absorbance between the propagation and the decomposition phase. The absorbance at tmax minus the absorbance at to was taken as an indicator of the total amount of dienes formed. To verify the reproducibility of the assay, a reference LDL sample was prepared and kept in darkness under nitrogen at 4° C. This reference sample was included in every oxidation experiment. LDL was isolated from 23 subjects. Plasma cholesterol ranged from 156 to 278 mg/dl (mean 213 mg/dl), triglycerides ranged from 47 to 328 mg/dl (mean 191 mg/dl) and phospholipids ranged from 178 to 327 mg/dl (mean 231 mg/dl).

[2] = system: C6 glioma cells; assay: Protection of C6 glioma cells from glutathione depletion-mediated oxidative stress (toxicity, LDH assay); format: cell-based
Excerpt: (§1) Competitive inhibition by glutamate of cystine uptake in certain cells leads to glutathione depletion and oxidative stress. This oxidative stress model has been described for glial C6 glioma cells (Kato et al., 1992. A mechanism for glutamate toxicity in the C6 glioma cells involving inhibition of cystine uptake leading to glutathione depletion. Neurosci. 48:903-914) and for the neuronal cell line N18RE105 (Murphy et al., 1989. Glutamate toxicity in a neuronal cell line involves inhibition of cystine transport leading to oxidative stress. Neuron 2:1547-1558).
(§2) Cell culture: The C6 glioma cell line (American Type Culture Collection, CCL 107) was cultivated in DMEM supplemented with 2 or 4 mM glutamine, 1 mM pyruvate and 5 or 10% heat-inactivated foetal calf serum. Cultures were maintained at 37° C. in an air/5~10% CO2, water saturated atmosphere.
(§3) Glutathione depletion and evaluation of drugs as antioxidants: Experiments were carried out with cultures plated at 30,000~50,000 cells/cm^2 in 24-well culture plates (for toxicity and lipid peroxide measurements) or at 136,000 cells/cm^2 in 96-well culture plates (for GSH determination). After 8-24 hr, the cultures were switched to culture medium in the absence or presence of the cystine uptake inhibitor glutamate at a final concentration of 10 mM. In order to test drugs for inhibition of oxidative stress, the drug was added together with glutamate (final concentration of solvent was 0.01% hydroxypropyl-β-cylodextrin, 0.1% DMSO). Intracellular glutathione levels were measured after 6~8 hr, lipid peroxides were measured after 14~20 hr, and toxicity and protection were analysed after 48 hr using an LDH assay according to the method of Bergmeyer and Bernt (UV-assay with pyruvate and NADH. In: Methods of Enzymatic Analysis. 1974. H. U. Bergmeyer, ed. Acad. Press, New York, 2nd Ed., pp 574-579).

[3] = system: C6 glioma cells; assay: GSH content in C6 glioma cultures after glutamate; format: cell-based
Excerpt: as §1, §2, §3
Determination of GSH content in C6 glioma cultures: GSH levels were analysed by a micromethod, essentially as described by Vandeputte et al. (A microtiterplate assay for total glutathione and glutathione disulfide contents in cultured/isolated cells: performance study of a new miniaturised protocol. 1994. Cell Biol. Toxicol. 10:415-421), with a modification in the washing and homogenisation procedures. Cells (in 96-well plates) were washed with PBS, were homogenised in 50 μl 10 mM HCl containing 1.3% 5-sulfosalicylic acid, and the homogenate was centrifuged at 1200×g for 10 min at 4° C. Forty μl of the supernatant was transferred to a well of a 96-well plate and 200 μl reagent (1 mM 5,5'-dithiobis-(2-nitrobenzoic acid), 0.34 mM NADPH and 6.3 mM EDTA in 143 mM phosphate buffer pH 7.4) was added. After 5 min equilibration to room temperature the reaction was started by adding 40 μl glutathione reductase (8.5 IU/ml 143 mM phosphate buffer, 6.3 mM EDTA pH 7.4). NADPH oxidation was followed at 414 nm for 5 minutes with a Multiskan MCC/340 (Labsystems), and the change in absorbance (DA) per min was calculated. The glutathione content was deduced from a standard curve ranging from 0.2 to 2 nmol commercial GSH per test (DA/min plotted versus concentration).

[4] = system: C6 glioma cells; assay: Fluorescence measurement of intracellular peroxides in C6 glioma cells after glutamate; format: cell-based
Excerpt: as §1, §2, §3
Fluorescence measurement of intracellular peroxides: Formation of intracellular peroxides was detected using 6-carboxy-2',7'-dichlorodihydrofluorescin diacetate, di(acetoxymethyl ester) (C-DCDHF, Molecular Probes). C-DCDHF was dissolved in DMSO at a concentration of 10 mM and stored at -70° C. under nitrogen. After exposure of the culture to the glutathione depleting agents, the cells were loaded with 10 μM C-DCDHF for one hour at 37° C. Medium was aspirated off, PBS was added to the cells, and plates were read in a Cytofluor II microplate reader (PerSeptive Biosystems). Excitation and emission wavelength were selected with a 485/530 nm filter pair. The results were expressed in relative fluorescence units/μg protein.

[5] = system: primary embryonic hippocampal cultures; assay: In vitro neuroprotection against nitric oxide and superoxide radicals (inhibition of LDH release); format: cell-based, rats; details: for inhibition at 1 µM / inhibition at 0.1 µM: Rattus norvegicus, read-out: % neuroprotection, mean ± SD; for inhibition at 1 µM: 10^-6 M; for inhibition at 0.1 µM: 10^-7 M
Experimental: Primary embryonic hippocampal cultures were prepared essentially as described previously (Pauwels et al., Van Aschouw, H. P., Peeters, L., Moeremans, M., Leysen, J. E. (1992) Chronic treatment with sabeluzole protects cultured rat brain neurons from the neurotoxic effects of excitatory amino acids. Synapse, 12:271-280). Hippocampal formations of rats at embryonic day 17 were dissected and dissociated in 0.05% trypsin, 0.1 mg/ml DNase I in DMEM (Dulbecco Modified Eagle Medium). Heat-inactivated horse serum (HS) was added to a concentration of 4%, and the cells were centrifuged, washed with DMEM, and resuspended in DMEM/Ham's F12 (3:1) containing 10% HS. The cells were plated at a density of 4×10^5 cells/cm^2 in poly L-lysine (0.001%) precoated multiwell-24 plates. On day 1 in culture, the medium was changed to chemically defined CDM-R12 medium (DMEM-HEPES/Ham's F12 (3:1) containing 0.26% bovine serum albumin, 30 nM sodium selenite, 3 nM 3,3',5 triiodo-L-thyronine, 0.35 μM retinol, 0.3 μM retinol acetate, 2.3 μM DL-a-tocopherol, 2.1 μM DL-a-tocopherol acetate, 3.6 μM linolenic acid, 3.6 μM linoleic acid, 0.125% human transferrin, […], 57.7 nM corticosterone, 49 U/I insulin, 0.4 μM biotin, 10 μM L-carnitine, 83 μM D(+)-galactose, 3.3 μM glutathione, 10 μM ethanolamine, 0.1 mM putrescine; Romijn, H. J., van Huizen, F., Wolters, P. S. (1984) Towards an improved serum-free, chemically defined medium for long-term culturing of cerebral cortex tissue. Neurosci. Behav. Rev., 8:301-334). Acute and prolonged pretreatment of the, cultures was essentially as described previously (Pauwels et al., 1992). Drugs were dissolved, and diluted in 10% or 1% hydroxypropyl-β-cyclodextrin such that the final concentrations of the solvent in the acute and chronic exposures were 0.1% and 0.01% respectively. Compound A as used in the following examples is [(RRSR)+(RRRS)+(SSSR) +(SSRS)]-α-[[[2-(chroman-2-yl)-2-hydroxy-ethyl]amino]methyl]-6-hydroxy-2-chromanmethanol ethanedioate (1:1).
For acute treatment, drug, or solvent was added to the cultures on day 7. After 20 min the medium was replaced with 200 μl chemically defined DMEM medium (the same composition of CDM-R12 medium but without Ham's F12) (control), or chemically defined DMEM medium containing the oxidative stress trigger. Oxidative stress triggers used were 1 mM sodium nitroprusside (SNP, a nitric oxide radical generating compound), or 7.5-10 mM diethyldithiocarbamate (DDTC, a superoxide dismutase inhibitor) and the test compound.
For prolonged pretreatment experiments, drug (concentration range 0.1 nM-10 μM) was added to the serum-free medium on days 1 and 4 of the culture. On day 7, the cultures were washed once with DMEM, and incubated with 0.2 ml chemically defined DMEM medium for 2 h at 37° C. The cells were washed and the medium was replaced by 0.2 ml chemically defined DMEM medium (control), or chemically defined DMEM medium containing the oxidative stress trigger (se above).
For both the acute experiment and the prolonged pretreatment experiment, extracellular and intracellular LDH (lactate dehydrogenase) activities were measured spectrophotometrically at 340 nm with an EPOS Analyzer 5060, according to the method of Bergmeyer (Bergmeyer, H. U. (1974) Biochemical reagents. In: Methods of Enzymatic Analysis. H. U. Bergmeyer, eds. Academic Press, New York, 2nd Ed., pp. […]). Extracellular LDH activity in the culture medium and cytoplasmic LDH activity measured after lysis of the cells in 1 ml H2 O, were used to calculate total LDH activity and % released LDH. % Neuroprotection refers to % inhibition of LDH release, where oxidative stress trigger-induced LDH release is defined as 0% protection, and basal (control) level of LDH release is defined as 100% protection.
Neuronal primary hippocampal cultures were grown in CDM-R12 medium for 7 days. Test compounds were either administered on days 1 and 4 of culture (prolonged pretreatment) or on day 7 of culture (acute treament). […]

[6] = glutamate 10 mM, without or with compound 1 μM
[7] = DDTC trigger, prolonged pretreatment
[8] = SNP trigger, prolonged pretreatment

Cc1c(C)c2c(c(C)c1O)CCC(C)(CCCC(C)CCCC(C)CCCC(C)C)O2 (stereo not drawn) [vitamin E, α-tocopherol, reference compound]
Tmax ([1]; 20 μM vitamin E, compared with 2 μM hydroxymetabolites of nebivolol): close to the tmax for the 2 μM hydroxymetabolites of nebivolol | anti-oxidant effect ([1]; concentration lower than 10 μM (results not shown)): did not show any anti-oxidant effect | antioxidative effect on human LDL ([1]; in vitro): delay the oxidation of LDL | initial absorbance ([1]; vitamin E): not affected | rate of oxidation ([1]; vitamin E): not affected | total amount dienes ([1]; vitamin E): not affected

Oc1ccc2c(c1)CCC(C(O)CNCC(O)C1CCc3ccccc3O1)O2 (stereo not drawn) [[(RSSS)+(RSRR)+(SRSS)+(SRRR)]-α-[[[2-(chroman-2-yl)-2-hydroxyethyl]amino]-methyl]-6-hydroxy-2-chroman-methanol ethanedioate (1:1)]
Tmax ([1]; 2 μM, FIG. 2): increased | lag time ([1]; 2 μM, FIG. 2): increased | rate of oxidation ([1]; 2 μM, FIG. 2): decreased

C[C@]12N[C@H](Cc3ccccc31)c1ccccc12 [MK801, reference compound]
cytoplasmic LDH release (glutamate toxicity) ([2]; data not shown): not prevented

Oc1ccc2c(c1)CCC(C(O)CNCC(O)C1CCc3cc(O)ccc3O1)O2 (stereo not drawn) [[(SRSR)+(SRRS)+(RSSR)] -α,α'-iminobis(methylene)bis[6-hydroxy-2-chromanmethanol]]
Tmax ([1]; 2 μM, FIG. 2): increased | lag time ([1]; 2 μM, FIG. 2): increased | rate of oxidation ([1]; 2 μM, FIG. 2): decreased

N[C@@H](CCC(=O)O)C(=O)O [glutamate, reference compound]
intracellular glutathione levels ([3]; 10 mM glutamate, 6 hr or more): sharp reduction in intracellular glutathione levels | GSH content [3, 6]: 296 ± 26 pmol/well | increase in toxic intracellular peroxides ([4]; 10 mM glutamate): ~6 fold | Intracellular peroxides (mean ± SD, n) [4, 6]: 525 ± 57 Relative fluorescence units/μg | cytotoxicity at 10000 µM ([2]; Rattus norvegicus, C6 glioma, 48 h, read-out: LDH release, % of total LDH): 93.2 ± 1.3%

COc1ccccc1OCCNCC(O)COc1cccc2[nH]c3ccccc3c12 (stereo not drawn) [carvedilol, reference compound]
inhibition at 1 µM ([5]; DDTC trigger, acute treatment): < 25% | inhibition at 0.1 µM ([5]; DDTC trigger, acute treatment): < 25% | inhibition at 1 µM [5, 7]: < 25% | inhibition at 0.1 µM [5, 7]: < 25% | inhibition at 1 µM ([5]; SNP trigger, acute treatment): < 25% | inhibition at 0.1 µM ([5]; SNP trigger, acute treatment): < 25% | inhibition at 1 µM [5, 8]: < 25% | inhibition at 0.1 µM [5, 8]: < 25% | neuroprotection against DDTC or SNP ([5]; one or the other treatment paradigm): not observed
